{"source": "paper PMC12467903", "about": "“A Sensitive Electrochemical Cholinesterase-Inhibiting Biosensor for Organophosphorus Pesticides Based on Ti3C2TX MXene Quantum Dots” (Biosensors, 2025)", "assay_type_in_all_cases": "biochemical", "key": {"[1]": {"molecular_target": "T1, acetylcholinesterase (AChE) (Electrophorus electricus, UniProt O42275)", "T1 sequence (O42275 24-633)": "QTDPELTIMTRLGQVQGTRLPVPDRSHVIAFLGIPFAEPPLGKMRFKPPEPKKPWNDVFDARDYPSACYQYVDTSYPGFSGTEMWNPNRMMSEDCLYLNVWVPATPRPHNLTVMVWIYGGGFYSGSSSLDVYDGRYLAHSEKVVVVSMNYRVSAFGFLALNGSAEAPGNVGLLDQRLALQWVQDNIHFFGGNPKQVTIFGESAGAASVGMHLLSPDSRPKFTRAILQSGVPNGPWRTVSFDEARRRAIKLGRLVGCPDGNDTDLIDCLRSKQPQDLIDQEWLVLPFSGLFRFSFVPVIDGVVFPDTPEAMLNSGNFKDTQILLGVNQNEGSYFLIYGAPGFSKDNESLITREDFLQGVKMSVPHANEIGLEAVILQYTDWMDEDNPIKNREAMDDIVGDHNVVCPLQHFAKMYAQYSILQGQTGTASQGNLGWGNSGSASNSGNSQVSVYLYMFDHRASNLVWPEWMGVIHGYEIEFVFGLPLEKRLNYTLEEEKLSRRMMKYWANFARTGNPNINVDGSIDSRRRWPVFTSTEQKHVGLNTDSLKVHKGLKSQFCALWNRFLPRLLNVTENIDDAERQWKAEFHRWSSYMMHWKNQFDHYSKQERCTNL", "experiment": "DPV peak current suppression with immobilized AChE ([…] at […])"}, "[2]": {"molecular_target": "T1, acetylcholinesterase (AChE)", "experiment": "electrochemical detection of thiocholine from hydrolysis by immobilized AChE"}, "[3]": {"molecular_target": "T1, acetylcholinesterase (AChE)", "experiment": "electrochemical (DPV/EIS/CV) inhibition of immobilized AChE, acetylthiocholine substrate"}}, "data": [{"smiles": "COP(=O)(NC(C)=O)SC", "note": "(stereo not drawn) [ACE, acephate]", "values": [{"measurement": "percent DPV peak current suppression", "setting": "[1]", "result": 37, "unit": "% at 2 nM"}]}, {"smiles": "CC(=O)SCC[N+](C)(C)C", "note": "[ACTI, acetylthiocholine iodide]", "values": [{"measurement": "electrochemical detection of thiocholine from hydrolysis by immobilized AChE", "setting": "[2]", "result": "In the absence of OP, AChE efficiently hydrolyzed ACTI into electroactive thiocholine (TCh)"}]}, {"smiles": "CCOP(=S)(OCC)Oc1nc(Cl)c(Cl)cc1Cl", "note": "[CPS, chlorpyrifos]", "values": [{"measurement": "Ki", "setting": "[3]", "result": 62, "unit": "nM"}]}]}
